Laboratory results from ChEMBL document CHEMBL1201862, “PubChem BioAssay data set” (2004).
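Compound exposure: 48 hours, 5 concentrations, 96-well plates. At the GI50, growth is halved.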 Calls of active or inactive are those of the source. No stated cut-off is given here; in the data, active = GI50 up to about 1.1 µM and inactive = higher.

Columns and labels:
Assay in all cases: DTP human tumour cell line panel, 48 h
786-0 = tested on: 786-0
OVCAR-4 = tested on: OVCAR-4
SK-MEL-5 = tested on: SK-MEL-5
HOP-62 = tested on: HOP-62
HCT-116 = tested on: HCT-116
UO-31 = tested on: UO-31
HT-29 = tested on: HT-29
IGROV-1 = tested on: IGROV-1
A549 = tested on: A549
NCI/ADR-RES = tested on: NCI/ADR-RES
EKVX = tested on: EKVX
NCI-H460 = tested on: NCI-H460
K562 = tested on: K562
MDA-MB-231 = tested on: MDA-MB-231
ACHN = tested on: ACHN
PC-3 = tested on: PC-3
COLO 205 = tested on: COLO 205
KM12 = tested on: KM12
SK-OV-3 = tested on: SK-OV-3
RPMI-8226 = tested on: RPMI-8226

Measured: GI50

COC(=O)c1cc(O)nc(O)n1
inactive: 786-0 > 100 µM | OVCAR-4 > 100 µM | SK-MEL-5 > 100 µM | HOP-62 > 100 µM | HCT-116 > 100 µM | UO-31 > 100 µM | HT-29 > 100 µM | IGROV-1 > 100 µM | A549 > 100 µM | NCI/ADR-RES > 100 µM | EKVX > 100 µM | NCI-H460 > 100 µM | K562 > 100 µM | MDA-MB-231 > 100 µM | ACHN > 100 µM | PC-3 > 100 µM

O=C(O)CCC(NC(=O)c1ccc(Oc2nc3ccccc3nc2-c2ccccc2)cc1)C(=O)O (centres undefined)
inactive: 786-0 > 100 µM | OVCAR-4 > 100 µM | COLO 205 > 100 µM | KM12 > 100 µM | SK-OV-3 > 100 µM | HOP-62 > 100 µM | HCT-116 > 100 µM | UO-31 > 100 µM | HT-29 > 100 µM | IGROV-1 > 100 µM | A549 > 100 µM | NCI/ADR-RES > 100 µM | EKVX > 100 µM | NCI-H460 > 100 µM | K562 > 100 µM | MDA-MB-231 > 100 µM | ACHN > 100 µM | PC-3 > 100 µM

N#Cc1nnc2ccccc2c1N
inactive: 786-0 > 100 µM | OVCAR-4 > 100 µM | COLO 205 > 100 µM | KM12 > 100 µM | SK-MEL-5 > 100 µM | HOP-62 > 100 µM | HCT-116 > 100 µM | UO-31 > 100 µM | RPMI-8226 > 100 µM | HT-29 > 100 µM | IGROV-1 > 100 µM | A549 > 100 µM | NCI/ADR-RES > 100 µM | EKVX > 100 µM | NCI-H460 > 100 µM | K562 > 100 µM | MDA-MB-231 > 100 µM | ACHN > 100 µM | PC-3 > 100 µM

Cc1ccc(S(=O)(=O)CN2C(=O)C(c3ccccc3)(c3ccccc3)C23OC(c2ccc(Cl)cc2)=CC3=O)cc1 (centres undefined)
inactive: 786-0 > 10 µM | OVCAR-4 > 10 µM | COLO 205 > 10 µM | KM12 > 10 µM | SK-OV-3 > 10 µM | SK-MEL-5 > 10 µM | HOP-62 > 10 µM | HCT-116 > 10 µM | UO-31 > 10 µM | HT-29 > 10 µM | IGROV-1 > 10 µM | A549 > 10 µM | NCI/ADR-RES > 10 µM | EKVX > 10 µM | NCI-H460 > 10 µM | K562 > 10 µM | MDA-MB-231 > 10 µM | ACHN > 10 µM | PC-3 4.07 µM

O=C1C(=Cc2ccccc2O)N=C(c2ccccc2)N1n1c(-c2ccccc2)nc2ccccc2c1=O
inactive: 786-0 42.1 µM | COLO 205 35.7 µM | KM12 30.3 µM | SK-OV-3 48.3 µM | SK-MEL-5 19.1 µM | HOP-62 31.3 µM | HCT-116 32.3 µM | UO-31 27.5 µM | RPMI-8226 38.6 µM | HT-29 37.2 µM | IGROV-1 34.4 µM | A549 33.6 µM | EKVX 30.6 µM | NCI-H460 29.8 µM | K562 29.6 µM | MDA-MB-231 42.2 µM | ACHN 29.5 µM | PC-3 34 µM

CC1=C(C)C(=O)C2=C(OCCO2)C1=O
inactive: 786-0 22.5 µM | COLO 205 17.6 µM | KM12 17.3 µM | SK-OV-3 17.9 µM | SK-MEL-5 16 µM | HOP-62 17.7 µM | HCT-116 3.73 µM | UO-31 10.1 µM | RPMI-8226 2.34 µM | HT-29 20 µM | IGROV-1 2.11 µM | A549 21.5 µM | NCI/ADR-RES 3.54 µM | EKVX 15.1 µM | NCI-H460 20.6 µM | MDA-MB-231 4.47 µM | ACHN 25.2 µM | PC-3 18.2 µM

CCc1nn(CN2CCOCC2)c(=S)n1/N=C/c1ccc(-c2ccc(Cl)cc2)o1
inactive: 786-0 > 100 µM | OVCAR-4 > 100 µM | KM12 > 100 µM | SK-MEL-5 > 100 µM | HOP-62 > 100 µM | HCT-116 > 100 µM | UO-31 > 100 µM | RPMI-8226 51.5 µM | HT-29 > 100 µM | IGROV-1 > 100 µM | A549 > 100 µM | NCI/ADR-RES > 100 µM | EKVX > 100 µM | NCI-H460 > 100 µM | K562 > 100 µM | MDA-MB-231 > 100 µM | ACHN > 100 µM | PC-3 > 100 µM

CC(=O)OCC1OC(c2nnc(C)o2)=CC(OC(C)=O)C1OC(C)=O (centres undefined)
inactive: 786-0 > 100 µM | OVCAR-4 > 100 µM | COLO 205 > 100 µM | KM12 > 100 µM | SK-MEL-5 > 100 µM | HOP-62 > 100 µM | HCT-116 > 100 µM | UO-31 > 100 µM | RPMI-8226 > 100 µM | HT-29 > 100 µM | IGROV-1 > 100 µM | A549 > 100 µM | NCI/ADR-RES > 100 µM | EKVX > 100 µM | NCI-H460 > 100 µM | K562 > 100 µM | MDA-MB-231 > 100 µM | ACHN > 100 µM | PC-3 > 100 µM

CCOC(=O)Cn1c(C)nc2nn(Cc3ccccc3)cc2c1=O
inactive: 786-0 > 100 µM | KM12 > 100 µM | SK-OV-3 > 100 µM | SK-MEL-5 > 100 µM | HOP-62 > 100 µM | HCT-116 > 100 µM | UO-31 > 100 µM | HT-29 > 100 µM | IGROV-1 > 100 µM | A549 > 100 µM | NCI/ADR-RES > 100 µM | EKVX > 100 µM | NCI-H460 > 100 µM | K562 > 100 µM | MDA-MB-231 > 100 µM | ACHN > 100 µM | PC-3 > 100 µM

O=C1CCC(=O)N1CNc1ccc2c(c1)S(=O)(=O)c1ccccc1O2
inactive: 786-0 > 100 µM | OVCAR-4 > 100 µM | COLO 205 > 100 µM | KM12 > 100 µM | SK-MEL-5 > 100 µM | HOP-62 > 100 µM | HCT-116 > 100 µM | UO-31 > 100 µM | RPMI-8226 54.7 µM | HT-29 > 100 µM | IGROV-1 > 100 µM | A549 > 100 µM | NCI/ADR-RES > 100 µM | EKVX 46 µM | K562 > 100 µM | MDA-MB-231 > 100 µM | ACHN > 100 µM | PC-3 > 100 µM

O=C1CC2c3ccccc3CCC2c2ccccc21 (centres undefined)
inactive: 786-0 31.3 µM | OVCAR-4 > 10 µM | COLO 205 2.93 µM | KM12 9.35 µM | SK-OV-3 51.2 µM | SK-MEL-5 11.6 µM | HOP-62 25.9 µM | HCT-116 11.1 µM | UO-31 15.2 µM | RPMI-8226 43.5 µM | HT-29 13.3 µM | IGROV-1 26.3 µM | A549 27.5 µM | EKVX 2.58 µM | NCI-H460 22.3 µM | K562 6.32 µM | MDA-MB-231 20.5 µM | ACHN 28.2 µM | PC-3 26.2 µM

NNc1ncnc2cccc(Cl)c12
inactive: 786-0 > 100 µM | OVCAR-4 > 100 µM | COLO 205 > 100 µM | KM12 > 100 µM | SK-OV-3 > 100 µM | SK-MEL-5 > 100 µM | HOP-62 > 100 µM | HCT-116 > 100 µM | UO-31 > 100 µM | HT-29 > 100 µM | IGROV-1 > 100 µM | A549 > 100 µM | NCI/ADR-RES > 100 µM | EKVX 17.8 µM | NCI-H460 > 100 µM | K562 > 100 µM | MDA-MB-231 > 100 µM | ACHN > 100 µM | PC-3 > 100 µM

c1ccc(-c2cc(-c3cc(-c4ccccc4)n(-c4ccccc4)n3)nn2-c2ccccc2)cc1
inactive: 786-0 78.5 µM | OVCAR-4 94.8 µM | COLO 205 > 100 µM | KM12 > 100 µM | SK-OV-3 > 100 µM | SK-MEL-5 > 100 µM | HOP-62 35.7 µM | HCT-116 > 100 µM | UO-31 > 100 µM | HT-29 > 100 µM | IGROV-1 > 100 µM | A549 > 100 µM | NCI/ADR-RES > 100 µM | EKVX > 100 µM | NCI-H460 > 100 µM | K562 > 100 µM | MDA-MB-231 > 100 µM | ACHN > 100 µM | PC-3 > 100 µM

CC1=NC(=Cc2ccc(Cl)cc2)C(=O)N1n1c(-c2ccccc2)nc2ccccc2c1=O
inactive: 786-0 40.6 µM | COLO 205 32.4 µM | KM12 36.4 µM | SK-OV-3 38.5 µM | SK-MEL-5 36.7 µM | HOP-62 47.2 µM | HCT-116 34.8 µM | UO-31 37.2 µM | RPMI-8226 34.1 µM | HT-29 37 µM | IGROV-1 31.6 µM | A549 39.8 µM | EKVX 27.2 µM | NCI-H460 23 µM | K562 34.8 µM | MDA-MB-231 49.7 µM | ACHN 22.2 µM | PC-3 24.3 µM

COc1cc2c(cc1C)NC(=O)/C2=C/c1c(Cl)n(-c2ccccc2)c2ccccc12
inactive: 786-0 15.3 µM | COLO 205 5.86 µM | KM12 7.31 µM | SK-OV-3 24.4 µM | SK-MEL-5 10.5 µM | HOP-62 19.4 µM | HCT-116 13.4 µM | UO-31 49.2 µM | RPMI-8226 7.28 µM | HT-29 5.25 µM | IGROV-1 34.4 µM | A549 7 µM | NCI/ADR-RES 16.8 µM | EKVX 17.5 µM | NCI-H460 9.59 µM | K562 6.46 µM | MDA-MB-231 8.69 µM | ACHN 12.7 µM | PC-3 4.41 µM
